Experimental data reported in BindingDB's records for patent US10399948 (Vanderbilt University, 2019).

These compounds were tested against Metabotropic glutamate receptor 5 (Rattus norvegicus, UniProt P31424) (assay: mGlu5 Ca2+ Flux Assay).
Description: HEK 293A cells stably expressing rat mGlu5 were plated in black-walled, clear-bottomed, poly-D-lysine coated 384-well plates in 20 μL of assay medium (DMEM containing 10% dialyzed FBS, 20 mM HEPES, 100 units/mL penicillin/streptomycin plus 250 ng/mL Fungizone, and 1 mM sodium pyruvate) at a density of 20K cells/well. The cells were grown overnight at 37° C. in the presence of 5% CO2. The next day, medium was removed and the cells incubated with 20 μL of […] Fluo-4, AM prepared as a 2.3 mM stock in DMSO and mixed in a 1:1 ratio with 10% (w/v) pluronic acid F-127 and diluted in assay buffer (Hank's balanced salt solution, 20 mM HEPES, and 2.5 mM probenecid) for 45 minutes at 37° C. Dye was removed, 20 μL of assay buffer was added, and the plate was incubated for 5 minutes at room temperature.Ca2+ flux was measured using the Functional Drug Screening System (FDSS7000, Hamamatsu, Japan). After establishment of a fluorescence baseline for about 3 seconds, the compounds of the present invention were added to the cells, and the response in cells was measured. 2.3 minutes later an EC20 concentration of the mGlu5 receptor agonist glutamate was added to the cells, and the response of the cells was measured for 1.9 minutes; an EC80 concentration of agonist was added and readings taken for an additional 1.7 minutes. All test compounds were dissolved and diluted to a concentration of 10 mM in 100% DMSO. Compounds were then serially diluted 1:3 in DMSO into 10 point concentration response curves, transferred to daughter plates, and further diluted into assay buffer to a 2× stock. Calcium fluorescence measures were recorded as fold over basal fluorescence; raw data was then normalized to the maximal response to glutamate. Potentiation of the agonist response of the mGlu5 receptor in the present invention was observed as an increase in response to submaximal concentrations of glutamate in the presence of compound compared to the response to glutamate in the absence of compound. Antagonism of the agonist response of the mGlu5 receptor in the present invention was observed as a decrease in response to nearly maximal concentrations of glutamate in the presence of compound compared to the response to glutamate in the absence of compound.The raw data file containing all time points was used as the data source in the analysis template. This was saved by the FDSS as a tab-delimited text file. Data were normalized using a static ratio function (F/F0) for each measurement of the total 360 values per well divided by each well's initial value. Data were then reduced to peak amplitudes (Max−Initial Min) using a time range that starts approximately 3 seconds prior to the glutamate EC20/EC80 addition and continues for approximately 90-120 seconds. This is sufficient time to capture the peak amplitude of the cellular calcium response. Individual amplitudes were expressed as % EMax by multiplying each amplitude by 100 and then dividing the product by the mean of the amplitudes derived from the glutamate ECMax-treated wells. EC50 values for test compounds were generated by fitting the normalized values versus the log of the test compound concentration (in mol/L) using a 4 parameter logistic equation where none of the parameters were fixed. Each of the three values collected at each concentration of test compound were weighted evenly

Metabotropic glutamate receptor 5, sequence (P31424 whole entry): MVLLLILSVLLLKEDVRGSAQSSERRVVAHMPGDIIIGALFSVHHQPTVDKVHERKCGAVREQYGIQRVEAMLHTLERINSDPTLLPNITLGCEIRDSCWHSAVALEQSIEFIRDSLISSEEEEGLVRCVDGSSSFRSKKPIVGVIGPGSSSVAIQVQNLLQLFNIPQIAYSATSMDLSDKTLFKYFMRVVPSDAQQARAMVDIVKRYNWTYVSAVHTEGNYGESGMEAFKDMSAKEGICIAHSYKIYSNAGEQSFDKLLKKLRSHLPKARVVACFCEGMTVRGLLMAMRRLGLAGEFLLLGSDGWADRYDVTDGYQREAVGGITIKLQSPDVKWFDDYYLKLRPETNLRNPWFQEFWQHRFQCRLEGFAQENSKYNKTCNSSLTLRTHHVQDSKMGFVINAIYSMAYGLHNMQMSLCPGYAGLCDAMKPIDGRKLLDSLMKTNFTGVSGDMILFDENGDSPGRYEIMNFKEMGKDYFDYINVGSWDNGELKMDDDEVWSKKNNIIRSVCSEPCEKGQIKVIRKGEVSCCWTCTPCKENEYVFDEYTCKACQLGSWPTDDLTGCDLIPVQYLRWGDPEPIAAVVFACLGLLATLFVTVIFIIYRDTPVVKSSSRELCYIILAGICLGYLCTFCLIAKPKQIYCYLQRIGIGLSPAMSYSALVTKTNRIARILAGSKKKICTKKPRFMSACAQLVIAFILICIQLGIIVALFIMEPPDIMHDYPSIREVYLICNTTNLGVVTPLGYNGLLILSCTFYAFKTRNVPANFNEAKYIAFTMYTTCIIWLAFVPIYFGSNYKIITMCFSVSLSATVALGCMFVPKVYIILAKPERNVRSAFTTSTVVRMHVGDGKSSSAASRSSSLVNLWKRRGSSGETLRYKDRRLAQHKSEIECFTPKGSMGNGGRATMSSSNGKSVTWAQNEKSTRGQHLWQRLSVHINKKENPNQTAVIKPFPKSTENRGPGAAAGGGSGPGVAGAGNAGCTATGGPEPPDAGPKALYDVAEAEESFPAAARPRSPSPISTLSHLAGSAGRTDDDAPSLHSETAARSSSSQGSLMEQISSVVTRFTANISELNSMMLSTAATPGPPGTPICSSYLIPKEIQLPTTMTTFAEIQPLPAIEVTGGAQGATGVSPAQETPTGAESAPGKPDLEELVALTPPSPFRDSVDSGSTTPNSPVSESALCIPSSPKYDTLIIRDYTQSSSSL

Point of comparison: `O=c1nc(OCCOc2ccccc2)ccn1-c1ccc(F)c(F)c1` [US10399948, Compound 15], IC50 0.427 µM. Against it:
- O=c1cc(OCCOc2ncccc2Cl)ccn1-c1ccc(F)cc1 [US10399948, Compound 54] — 18-fold higher, 7.82 µM
- O=c1nc(OCCOc2ccccc2)ccn1-c1cccc(F)c1 [US10399948, Compound 14] — 8.3-fold higher, 3.54 µM
- N#Cc1cccc(-n2ccc(OCCOc3ccccc3)cc2=O)c1 [US10399948, Compound 22] — 14-fold higher, 6.02 µM
- N#Cc1cc(F)cc(-n2ccc(OCCOc3ccccc3)cc2=O)c1 [US10399948, Compound 23] — 3.1-fold higher, 1.31 µM
- O=c1cc(OCCOc2cc(Cl)ccn2)ccn1-c1ccc(F)cc1 [US10399948, Compound 49] — 21-fold higher, 8.8 µM
- O=c1nc(OCCOc2ccccc2)ccn1-c1ccc(F)cc1 [US10399948, Compound 17] — 2.8-fold higher, 1.19 µM
